Assay results taken from patent US10154992B2, “Compounds and methods for treating HIV infection” (THE REGENTS OF THE UNIVERSITY OF CALIFORNIA, priority 2016, dated 2018).
In brackets after ≈: the same amount, converted by molar mass. Read-outs that look alike come from different tables or passages of the source.

Assays:
[1] = tested on: HIV-1 provirus in U1 cells; assay: U1 activation (latency) assay, p24 ELISA; format: cell-based
Description: (§1) U1 activation assay. U1 cells obtained from the AIDS Research and Reference Reagent Program were maintained under standard culture conditions in RPMI 1640 supplemented with 10% fetal bovine serum (heat inactivated), 2 mM L-glutamine, 100U/mL penicillin and 100 μg/mL streptomycin. U1 cells contain an integrated copy of a phorbol ester inducible HIV-1 provirus and addition of phytohemagglutinin (PHA) to the cell culture was used to induce virus production. On the day of the assay, the U1 cells were activated with PHA and 250,000 cells were plated in 96-well plates. Test compounds were diluted in media and applied to the cells at final concentrations from 1 to 10,000 nM. Cultures were incubated for 3 days and supernatants harvested. Cell-free virus production was measured by p24 ELISA on culture supernatant. Compound toxicity was determined by MTT cell-viability assay in parallel assays.

[2] = MTT cell viability run in parallel with the Tat-hybrid assay; format: cell-based; conditions: human, Tat-hybrid reporter cell lines (HeLa); for CC50 at 48 h: Table 5, read-out: Tat hybrid TC50; for EC50 at 48 h: Table 6, second 'EC50' entry of the cell, values D/E
Description: (§2) Cells were counted and plated into white 384-well or 96-well cell-culture treated assay plates and compounds were added. After 48 hours, the cells were prepared for luminescence assays that were performed on a plate reader (Tecan Evolution or MD Analyst). The cytotoxicity of each compound was determined in parallel via MTT-based cell viability assays.
as §2, with “Tat hybrid reporter assay. […] Previously characterized thienopyridines and diaminoacridine were used as controls. Cells” for “Cells”, “384-well” for “384-well or 96-well”, “lumincescence” for “luminescence”, “assays. […]” for “assays.”

[3] = MTT cell viability in parallel with the U1 assay; format: cell-based; conditions: human, U1 cells, read-out: U1 TC50
Description: as §1

HIV-1 isolate NL4-3 = assay: Virus spreading / replication assay in Jurkat cells, p24 ELISA; format: cell-based
Description: (§3) Virus spreading assay. Jurkat (E6-1) cells (NIH AIDS Reagent Program) were cultured in RPMI media supplemented with 25 mM HEPES pH 7.4, 10% heat-inactivated fetal calf serum (Hyclone, Waltham Mass.), and 1% penicillin/streptomycin. 2.5×10^5 Jurkat cells were inoculated with 250 pg p24 in 250 μl media in a 96-well flat bottom polystyrene cell culture microplate. Input virus was removed after 18 hours via washing cells phosphate-buffered saline (PBS). Cells were resuspended in 250 μl of media containing compounds at the described concentrations. Cells were incubated at 37° C., 5% CO2 and supernatant samples were removed every 48 hours and replaced with fresh media containing the compounds. Viral replication was quantified using ELISA to quantify p24 viral capsid protein in the culture supernatant. Mouse monoclonal and rabbit polyclonal α-p24 antibodies used in the ELISA were obtained from the NIH AIDS Reagent Program. Toxicity was monitored using the MTT cell viability assay (Mosmann, T. (1983). J Immunol Methods 65, 55-63).

[4] = MTT cell viability in Jurkat replication assay; format: cell-based; conditions: human, Jurkat (E6-1) cells, pH 7.4
Description: as §3

[5] = tested on: Tat-hybrid reporter cell lines (HeLa); assay: MTT cell viability run in parallel with the Tat-hybrid assay; format: cell-based; conditions: Table 6; at 50,000 nM
Description: as §2
as §2, with “Tat hybrid reporter assay. […] Previously characterized thienopyridines and diaminoacridine were used as controls. Cells” for “Cells”, “384-well” for “384-well or 96-well”, “lumincescence” for “luminescence”, “assays. […]” for “assays.”

Jurkat cells = assay: MTT cell viability in Jurkat replication assay; format: cell-based; conditions: Table 5; read-out: Jurkat TC50
Description: as §3

[6] = Human liver microsome stability; format: in vitro ADME; conditions: human liver microsomes; read-out: HLM T1/2
Text: The more lipophilic analogs 4a and 4e also appear more prone to oxidative metabolism in the presence of human liver microsomes. This is perhaps unsurprising given the presence of methoxyphenyl (4a) and benzylic methylene (4e) functions, both potential sites of oxidative metabolism.

[7] = Aqueous solubility pH 7.4; format: physicochemical; conditions: aqueous solution, pH 7.4, pH 7.4, aqueous buffer
Text: (§4) We next evaluated analogs 2b, 2f, 4a, and 4e in a panel of standard in vitro ADME assays to assess drug-like properties and the potential for efficacy in animals.

Caco-2 permeability = format: in vitro ADME; conditions: human
Text: as §4

[8] = Human immunodeficiency virus 1, Table 5, read-out: U1 IC50
[9] = Human immunodeficiency virus 1, NL43, Jurkat, Table 5, read-out: Jurkat replication IC50
[10] = Human immunodeficiency virus 1, Table 6, read-out: U1 IC50
[11] = Human immunodeficiency virus 1, read-out: U1 cell IC50 (nM)

Row | Structure (SMILES) | IC50 [1, 8] | CC50 at 48 h [2] | CC50 at 3 days ([3]; Table 5) | further results
1 | COc1ccc(-c2cncc3sc(C(N)=O)cc23)cc1 [drawing 129] | < 100 nM | < 40 µM | < 40 µM | IC50 (HIV-1 isolate NL4-3; [9]): < 0.1 µM; CC50 ([4]; Table 5, read-out: Jurkat TC50): < 40 µM
2 | NC(=O)c1sc2nc3c(c(-c4ccco4)c2c1N)CCCC3 |  |  |  | IC50 [1, 10]: > 500 nM; EC50 at 48 h [2]: > 40 µM; Tat hybrid cell viability at 50,000 nM [5]: X (X = >60%); CC50 at 3 days ([3]; Table 6): < 40 µM
3 | CCc1c(C)nc2sc(C(N)=O)c(N)c2c1C |  |  |  | IC50 [1, 10]: > 500 nM; EC50 at 48 h [2]: > 40 µM; Tat hybrid cell viability at 50,000 nM [5]: Y (Y = 30-60%); CC50 at 3 days ([3]; Table 6): > 40 µM
4 | NC(=O)c1sc2nccc(Nc3ccccc3)c2c1N |  |  |  | IC50 [1, 10]: 100 to 500 nM; EC50 at 48 h [2]: > 40 µM; Tat hybrid cell viability at 50,000 nM [5]: Y (Y = 30-60%); CC50 at 3 days ([3]; Table 6): > 40 µM
5 | NC(=O)c1cc2c(-c3cnc4ccccc4c3)cncc2s1 | < 100 nM | > 40 µM | > 40 µM | IC50 (HIV-1 isolate NL4-3; [9]): < 0.1 µM; CC50 ([4]; Table 5, read-out: Jurkat TC50): > 40 µM
6 | NC(=O)c1sc2cncc(N3CCCCC3)c2c1N [drawing 134] | < 100 nM | > 40 µM | < 40 µM | IC50 (HIV-1 isolate NL4-3; [9]): < 0.1 µM; CC50 (Jurkat cells): > 40 µM
7 | NC(=O)c1cc2c(-c3ccc4ccccc4c3)cncc2s1 | < 100 nM | > 40 µM | < 40 µM | IC50 (HIV-1 isolate NL4-3; [9]): < 0.1 µM; CC50 ([4]; Table 5, read-out: Jurkat TC50): < 40 µM
8 | COCc1cc(C)nc2sc(C(N)=O)c(N)c12 |  |  |  | IC50 [1, 10]: > 500 nM; EC50 at 48 h [2]: > 40 µM; Tat hybrid cell viability at 50,000 nM [5]: X (X = >60%); CC50 at 3 days ([3]; Table 6): > 40 µM
9 | NC(=O)c1cc2c(-c3ccc4c(c3)CCO4)cncc2s1 [drawing 128] | < 100 nM | > 40 µM | < 40 µM | IC50 (HIV-1 isolate NL4-3; [9]): < 0.1 µM; CC50 (Jurkat cells): < 40 µM
10 | CC(=O)N1CCN(c2cncc3sc(C(N)=O)c(N)c23)CC1 [Compound 2f, 4-(4-acetylpiperazin-1-yl)-3-aminothieno[2,3-c]pyridine-2-carboxamide] |  |  |  | IC50 [1, 11]: 100 to 500 nM; half-life [6]: > 60 min; IC50 (HIV-1 isolate NL4-3; Human immunodeficiency virus 1, NL43, Jurkat, Table 1, read-out: Jurkat HIV-1 replication assay): > 0.5 µM; solubility [7]: 258 µM (≈ 82.4 µg/mL); Papp (Caco-2 permeability): 9.7 ×10⁻⁶ cm/s
11 | NC(=O)c1sc2cncc(N3CCCCC3)c2c1N [Compound 2b, 3-amino-4-(piperidin-1-yl)thieno[2,3-c]pyridine-2-carboxamide] |  |  |  | IC50 [1, 11]: < 100 nM; IC50 ([1]; Human immunodeficiency virus 1, read-out: IC50 in the U1 assay): 28 nM; half-life [6]: 28 min; IC50 (HIV-1 isolate NL4-3; Human immunodeficiency virus 1, NL43, Jurkat, Table 2, NL4-3, read-out: Jurkat HIV-1 replication assay): < 0.1 µM; IC50 (HIV-1 isolate NL4-3; Human immunodeficiency virus 1, NL43, Jurkat, read-out: IC50 in the HIV replication assay): 0.0768 µM; IC50 (HIV-1 isolate NL4-3; Table 1, read-out: Jurkat HIV-1 replication assay): < 0.1 µM; CC50 ([4]; Jurkat infectivity assay, read-out: TC50 (MTT cell viability)): > 40 µM; solubility [7]: 34 µM (≈ 9.4 µg/mL); Papp (Caco-2 permeability): 50.5 ×10⁻⁶ cm/s
12 | NC(=O)c1sc2cncc(-c3ccc4c(c3)CCO4)c2c1N [drawing 151] | < 100 nM | < 40 µM | > 40 µM | 
13 | NC(=O)c1sc2cncc(N3CCC4(CC3)OCCO4)c2c1N [drawing 161] | 100 to 500 nM | < 40 µM | > 40 µM | 
14 | NC(=O)c1sc2cncc(-c3ccc4cc[nH]c4c3)c2c1N | 100 to 500 nM | > 40 µM | > 40 µM | 
15 | NC(=O)c1sc2cncc(N3CCN(C=O)CC3)c2c1N | > 500 nM | < 40 µM | > 40 µM | 
16 | N#Cc1ccccc1-c1cncc2sc(C(N)=O)cc12 [drawing 164] | > 500 nM | > 40 µM | > 40 µM | 
17 | CN(C)c1cncc2sc(C(N)=O)c(N)c12 | 100 to 500 nM | < 40 µM | > 40 µM | 
18 | CC(=O)N1CCN(c2cncc3sc(C(N)=O)c(N)c23)CC1 [drawing 144] | 100 to 500 nM | > 40 µM | > 40 µM | IC50 (HIV-1 isolate NL4-3; [9]): > 0.5 µM; CC50 ([4]; Table 5, read-out: Jurkat TC50): > 40 µM
19 | NC(=O)c1cc2c(-c3ccc4c(c3)OCO4)cncc2s1 [drawing 137] | < 100 nM | < 40 µM | < 40 µM | 
20 | CN(C)c1ccnc2sc(C(N)=O)c(N)c12 [drawing 152] | > 500 nM | > 40 µM | > 40 µM | 
21 | CCOc1ncccc1-c1cncc2sc(C(N)=O)c(N)c12 | 100 to 500 nM | > 40 µM | > 40 µM | 
22 | NC(=O)c1cc2c(-c3cccc(-c4ccccc4)c3)cncc2s1 [drawing 145] | 100 to 500 nM | > 40 µM | < 40 µM | 
23 | Cc1cc(C)c2c(N)c(C(N)=O)sc2n1 |  |  |  | IC50 [1, 10]: > 500 nM; EC50 at 48 h [2]: > 40 µM; Tat hybrid cell viability at 50,000 nM [5]: Z (Z = <30%); CC50 at 3 days ([3]; Table 6): > 40 µM
24 | NC(=O)c1sc2cncc(N3CCc4sccc4C3)c2c1N | < 100 nM | > 40 µM | < 40 µM | 
25 | NC(=O)c1cc2c(N3CCOCC3)cncc2s1 | 100 to 500 nM | > 40 µM | < 40 µM | 
26 | NC(=O)c1sc2cncc(N3CCC(F)(F)CC3)c2c1N [drawing 159] | 100 to 500 nM | < 40 µM | > 40 µM | 
27 | COc1ncc(-c2cncc3sc(C(N)=O)cc23)c(OC)n1 | > 500 nM | > 40 µM | > 40 µM | 
28 | NC(=O)c1sc2cncc(N3CCc4ccccc4C3)c2c1N | < 100 nM | < 40 µM | < 40 µM | 
29 | NC(=O)c1sc2cncc(N3CCCC(COc4ccccc4F)C3)c2c1N (stereo not shown) | > 500 nM | < 40 µM | < 40 µM | 
30 | NC(=O)c1cc2c(-c3ccc4c(c3)OCCO4)cncc2s1 | < 100 nM | < 40 µM | < 40 µM | 
